The values that follow come from US20110039879A1, “METHODS FOR INCREASING WHITE BLOOD CELLS” (FibroGen ,Inc., priority 2007, published 2011).

Assay type in all cases: in vivo, Swiss-Webster mice
One assay concerns monocytes. As to the kind of experiment: Monocytes by complete blood count on day 8, dosing day 1, 3, 5. The note with it: mice, oral gavage, measured on day 8.
Another assay deals with lymphocytes. As to the kind of experiment: Lymphocytes by complete blood count on day 8, dosing day 1, 3, 5. The following applies: mice, oral gavage, measured on day 8. The method, boiled down: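 Male Swiss-Webster mice received the compounds by oral gavage through a ball-tipped gavage needle on days 1, 3 and 5. On day 8, 200 μl blood samples were drawn and lymphocyte counts were obtained by complete blood count on a CellDyn cell analyzer (Abbott Laboratories). The change was expressed as percent increase relative to control animals.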

Assay [1] concerns neutrophils. As to the kind of experiment: Neutrophils by complete blood count on day 8, dosing day 1, 3, 5. The following applies: mice, oral gavage, measured on day 8.
Assay [2] deals with neutrophils. Described as above. The note with it: Mus musculus, Neutrophil, 192 h, mice, oral gavage, measured on day 8, read-out: Neutrophils % Increase Over Control; for change in vivo at 100 mg/kg: 100 mg/kg on day 1, day 3 and day 5; for change in vivo at 200 mg/kg: 200 mg/kg on day 1, day 3 and day 5. On the procedure:
To examine the effect of compounds and methods of the present invention on increasing white blood cells, the following studies were performed. In one series of experiments, male Swiss-Webster mice were administered various compounds of the present invention via oral gavage using a ball-tipped gavage needle. […] Animals were dosed once daily for 3 or 4 days. Six hours after the final dosing, 200 μl blood samples were collected and total white blood cell, neutrophil, and lymphocyte levels were measured by complete blood count (CBC) using a CellDyn cell analyzer (Abbott Laboratories).
In another series of experiments, male Swiss-Webster mice were administered various compounds (see Table 7 and Table 8) of the present invention via oral gavage using a ball-tipped gavage needle. […] Total WBC, neutrophil, lymphocyte, and monocyte levels were measured in mice as described above on day 8 following administration of compound on day 1, day 3, and day 5.

Assay [3] concerns total white blood cell (WBC). As to the kind of experiment: Total white blood cells by complete blood count on day 8, dosing day 1, 3, 5. The following applies: Mus musculus, 192 h, mice, oral gavage, measured on day 8, read-out: Total WBC % Increase Over Control; for change in vivo at 100 mg/kg: 100 mg/kg on day 1, day 3 and day 5; for change in vivo at 200 mg/kg: 200 mg/kg on day 1, day 3 and day 5. The method, boiled down: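 Male Swiss-Webster mice received test compound by oral gavage with a ball-tipped gavage needle on day 1, day 3 and day 5. On day 8, 200 μl of blood was collected and total white blood cell levels were determined by complete blood count on a CellDyn cell analyzer (Abbott Laboratories), expressed as percent change relative to control.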

Assay [4] deals with total white blood cell (WBC). Described as above. The note with it: mice, oral gavage, measured on day 8.
Where [5] appears, read: 100 mg/kg on day 1, day 3 and day 5.
The mark [6] stands for this setting: Mus musculus, Lymphocyte, 192 h, 100 mg/kg on day 1, day 3 and day 5, read-out: Lymphocytes % Increase Over Control.
[7] abbreviates: Mus musculus, Monocyte, 192 h, 200 mg/kg on day 1, day 3 and day 5, read-out: Monocytes % Increase Over Control.
Where [8] appears, read: 200 mg/kg on day 1, day 3 and day 5.
Where [9] appears, read: Mus musculus, Lymphocyte, 192 h, 200 mg/kg on day 1, day 3 and day 5, read-out: Lymphocytes % Increase Over Control.
The mark [10] stands for this setting: Mus musculus, Monocyte, 192 h, 100 mg/kg on day 1, day 3 and day 5, read-out: Monocytes % Increase Over Control.
The mark [11] stands for this setting: 60 mg/kg on day 1, day 3 and day 5.
Where [12] appears, read: 20 mg/kg on day 1, day 3 and day 5.

Structures are written as SMILES.

As to `Cc1nc(C(=O)NCC(=O)O)c(O)c2cccc(Oc3ccccc3)c12` [Compound AC, [(4-Hydroxy-1-methyl-8-phenoxy-isoquinoline-3-carbonyl)-amino]-acetic acid], the Monocytes with monocytes (setting [5]) is reported as 0.1 10^3 cells/μl. Moreover, the change in vivo at 100 mg/kg is 95% with lymphocytes (setting [6]), 96% in the assay on neutrophils [2] and 94% in assay [3]. Besides, in the assay with lymphocytes (setting [5]), the Lymphocytes was 8.0 10^3 cells/μl. The Neutrophils with neutrophils [1] (setting [5]) is 1.0 10^3 cells/μl. In addition, in assay [4] (setting [5]), the “Total WBC” value is given as 9.2 10^3 cells/μl.
Turning to `COc1ccc(Oc2cccc3c(C#N)nc(C(=O)NCC(=O)O)c(O)c23)cc1` [Compound N, {[1-Cyano-4-hydroxy-5-(4-methoxy-phenoxy)-isoquinoline-3-carbonyl]-amino}-acetic acid], the change in vivo at 200 mg/kg in the assay on monocytes (setting [7]) was determined as 157%; in the assay on lymphocytes (setting [9]), 138%; in the assay on neutrophils [2], 60%; in assay [3], 125%. Also, in the assay with monocytes (setting [8]), the Monocytes is given as 0.2 10^3 cells/μl. For the same compound, the Lymphocytes in the assay on lymphocytes (setting [8]) was 10.7 10^3 cells/μl. In addition, the Neutrophils in the assay with neutrophils [1] (setting [8]) was 0.9 10^3 cells/μl. Further, the “Total WBC” value in assay [4] (setting [8]) is 12.0 10^3 cells/μl.
`N#Cc1nc(C(=O)NCC(=O)O)c(O)c2c(Cl)cn(Cc3ccc(F)cc3)c12` [Compound P, {[3-Chloro-7-cyano-1-(4-fluoro-benzyl)-4-hydroxy-1H-pyrrolo[2,3-c]pyridine-5-carbonyl]-amino}-acetic acid]: the change in vivo at 100 mg/kg in the assay on monocytes (setting [10]) was 33%; with lymphocytes (setting [6]) it was 60%; in the assay with neutrophils [2], 18%; in assay [3] it was 54%. Also, in the assay with monocytes (setting [5]), the Monocytes is listed as 0.1 10^3 cells/μl. The Lymphocytes in the assay on lymphocytes (setting [5]) is 9.1 10^3 cells/μl. Besides, in the assay with neutrophils [1] (setting [5]), the Neutrophils is given as 0.8 10^3 cells/μl. The “Total WBC” value in assay [4] (setting [5]) is listed as 10.2 10^3 cells/μl.
On to `N#Cc1nc(C(=O)NCC(=O)O)c(O)c2ccc(Oc3ccccc3)cc12` [Compound Z, [(1-Cyano-4-hydroxy-7-phenoxy-isoquinoline-3-carbonyl)-amino]-acetic acid], for which the change in vivo at 60 mg/kg in the assay on monocytes (Mus musculus, Monocyte, 192 h, 60 mg/kg on day 1, day 3 and day 5, read-out: Monocytes % Increase Over Control) came to 200%; in the assay with lymphocytes (Mus musculus, Lymphocyte, 192 h, 60 mg/kg on day 1, day 3 and day 5, read-out: Lymphocytes % Increase Over Control), 0%; in the assay on neutrophils [2] (setting [11]) it was 80%; in assay [3] (setting [11]) it was 6%. Besides, the Monocytes in the assay on monocytes (setting [11]) was 0.1 10^3 cells/μl. The Lymphocytes in the assay with lymphocytes (setting [11]) was 7.1 10^3 cells/μl. The Neutrophils in the assay on neutrophils [1] (setting [11]) is 1.1 10^3 cells/μl. Moreover, the “Total WBC” value in assay [4] (setting [11]) is listed as 8.3 10^3 cells/μl.
Regarding `N#Cc1nc(C(=O)NCC(=O)O)c(O)c2c(Cl)cn(Cc3ccc(-c4ccccc4)cc3)c12` [Compound AW, [(1-Biphenyl-4-ylmethyl-3-chloro-7-cyano-4-hydroxy-1H-pyrrolo[2,3-c]pyridine-5-carbonyl)-amino]-acetic acid], the change in vivo at 200 mg/kg stood at 100% with monocytes (setting [7]), 635% in the assay on lymphocytes (setting [9]), 604% in the assay on neutrophils [2] and 616% in assay [3]. Besides, the Monocytes with monocytes (setting [8]) is recorded as 0.2 10^3 cells/μl. Moreover, the Lymphocytes with lymphocytes (setting [8]) was 34.1 10^3 cells/μl. In the assay on neutrophils [1] (setting [8]), the Neutrophils is reported as 4.7 10^3 cells/μl. Further, in assay [4] (setting [8]), the “Total WBC” value is listed as 39.1 10^3 cells/μl.
With `Cc1cccc(C)c1Oc1ccc2c(O)c(C(=O)NCC(=O)O)nc(C#N)c2c1` [Compound AI, {[1-Cyano-7-(2,6-dimethyl-phenoxy)-4-hydroxy-isoquinoline-3-carbonyl]-amino}-acetic acid], the change in vivo at 100 mg/kg was found to be 0% in the assay on monocytes (setting [10]), 303% in the assay on lymphocytes (setting [6]), 45% with neutrophils [2] and 266% in assay [3]. Besides, the Monocytes in the assay with monocytes (setting [5]) is 0.1 10^3 cells/μl. Also, in the assay with lymphocytes (setting [5]), the Lymphocytes is 17.4 10^3 cells/μl. Besides, in the assay with neutrophils [1] (setting [5]), the Neutrophils is 0.7 10^3 cells/μl. The “Total WBC” value in assay [4] (setting [5]) was 18.3 10^3 cells/μl.
Consider `C[C@@H](c1ccccc1)n1c(Cl)c(Cl)c2c(O)c(C(=O)NCC(=O)O)nc(C#N)c21` [Compound AL, {[(S)-2,3-Dichloro-7-cyano-4-hydroxy-1-(1-phenyl-ethyl)-1H-pyrrolo[2,3-c]pyridine-5-carbonyl]-amino}-acetic acid], for which the change in vivo at 200 mg/kg came out at 33% in the assay with monocytes (setting [7]), 205% in the assay with lymphocytes (setting [9]), 265% in the assay on neutrophils [2] and 207% in assay [3]. In addition, the Monocytes with monocytes (setting [8]) was 0.1 10^3 cells/μl. The Lymphocytes with lymphocytes (setting [8]) was 15.3 10^3 cells/μl. Also, in the assay on neutrophils [1] (setting [8]), the Neutrophils is 2.8 10^3 cells/μl. In addition, in assay [4] (setting [8]), the “Total WBC” value is 18.2 10^3 cells/μl.
As to `C[C@H](c1ccccc1)n1c(Cl)c(Cl)c2c(O)c(C(=O)NCC(=O)O)nc(C#N)c21` [Compound L, {[(R)-2,3-Dichloro-7-cyano-4-hydroxy-1-(1-phenyl-ethyl)-1H-pyrrolo[2,3-c]pyridine-5-carbonyl]-amino}-acetic acid], the Monocytes in the assay on monocytes (setting [5]) is 0.0 10^3 cells/μl. Also, the change in vivo at 100 mg/kg in the assay with lymphocytes (setting [6]) came out at 262%; in the assay with neutrophils [2], 469%; in assay [3], 281%. In addition, the Lymphocytes in the assay with lymphocytes (setting [5]) is recorded as 18.0 10^3 cells/μl. In addition, the Neutrophils with neutrophils [1] (setting [5]) is reported as 4.8 10^3 cells/μl. The “Total WBC” value in assay [4] (setting [5]) is 22.8 10^3 cells/μl.
`Cc1cccc(Oc2cccc3c(C#N)nc(C(=O)NCC(=O)O)c(O)c23)c1` [Compound AY, {[1-Cyano-4-hydroxy-5-m-tolyloxy-isoquinoline-3-carbonyl]-amino}-acetic acid]: the change in vivo at 20 mg/kg in the assay on monocytes (Mus musculus, Monocyte, 192 h, 20 mg/kg on day 1, day 3 and day 5, read-out: Monocytes % Increase Over Control) was found to be 8%; in the assay with lymphocytes (Mus musculus, Lymphocyte, 192 h, 20 mg/kg on day 1, day 3 and day 5, read-out: Lymphocytes % Increase Over Control) it was 21%; in the assay with neutrophils [2] (setting [12]) it was 9%; in assay [3] (setting [12]) it was 19%. Besides, the Monocytes with monocytes (setting [12]) is recorded as 0.2 10^3 cells/μl. Further, the Lymphocytes with lymphocytes (setting [12]) is given as 6.5 10^3 cells/μl. Also, in the assay on neutrophils [1] (setting [12]), the Neutrophils is 0.7 10^3 cells/μl. Moreover, the “Total WBC” value in assay [4] (setting [12]) is 7.5 10^3 cells/μl.
